# Structures can show the parent of a compound that is named as a salt.
# Biological target: T1, c-Myc/Max/Ebox DNA (Homo sapiens, UniProt P01106)
# T1 construct: his6 (cleaved yes)
# Experiment: c-Myc/Max/Ebox DNA AlphaScreen Assay
# Format: binding
# Conditions: free c-Myc 20 nM, his6-Max 5 nM, biotinylated Ebox oligo 10 nM, 2 hour incubation
# Procedure: Compounds of the invention were assayed for c-Myc/Max/EBox activity as described in the following protocol. Human his6-c-Myc and his6-Max were used with biotinylated DNA containing a single Ebox sequence (biotin[…]) purchased from MWG Operon. Free c-Myc was generated from his6-c-Myc through thrombin cleavage of the his6 tag. For 384-well plate assays, 10 μL of a 2× solution of free c-Myc (20 nM final), Ni^2+ coated Acceptor Beads (25 μg/ml final), and biotinylated Ebox oligo (10 nM final) were added to 384-well plates with a Biotek EL406 liquid handler. 50 nL of compounds from stock plates were added by pin transfer using a Janus Workstation (PerkinElmer), allowing the compounds to interact with c-Myc prior to c-Myc binding with Max. In the current assay, DMSO was not allowed to exceed 2% v/v of the assay. 10 μl of 2× master mix containing streptavidin-coated donor beads (25 μg/ml final) and his6-Max (5 nM) were added. AlphaScreen measurements were performed on an Envision plate reader (PerkinElmer) utilizing the manufacturer's protocol.
# Both master mixes were made in room temperature assay buffer (50 mM HEPES, 150 mM NaCl, 0.2% w/v BSA, 0.02% w/v Tween20, 40 μg/ml glycogen, 500 μM DTT, pH 8.0, wherein both DTT and glycogen were added fresh). Alpha beads were added to respective master solutions. All subsequent steps were performed in low light conditions. Solution 1: 2× solution of components with final concentrations of c-Myc Ni-coated Acceptor Beads (25 μg/ml), and biotinylated Ebox oligo (10 nM). Solution 2: 2× solution of streptavidin-coated donor beads (25 μg/ml final) and his6-Max […]. Solution 1 was added to 384-well plate (AlphaPlate-384, PerkinElmer) with Biotek EL406 liquid handler and the plates were centrifuged very briefly. 50 nL of compounds from stock plates were added by pin transfer using a Janus Workstation. Solution 2 (10 μL) was added with the liquid handler. Plates were sealed with foil to block light exposure and prevent evaporation. Plates were very briefly centrifuged followed by 2 hour incubation. AlphaScreen measurements were performed on an Envision 2104 utilizing the manufacturer's protocol. Excitation was at 680 nm for donor bead release of singlet oxygen and emission was read with a bandpass filter from 520-620 nm. Glycogen: Roche Diagnostics #10901393001. Plate 1536: Perkin Elmer, 6004350. Plate 384: Perkin Elmer, 6005350. Nickel-His Alpha Beads: 6760619R. The data from this assay are summarized in Table 3 below (Myc/Max/DNA Activity).
# T1 sequence (P01106 whole entry): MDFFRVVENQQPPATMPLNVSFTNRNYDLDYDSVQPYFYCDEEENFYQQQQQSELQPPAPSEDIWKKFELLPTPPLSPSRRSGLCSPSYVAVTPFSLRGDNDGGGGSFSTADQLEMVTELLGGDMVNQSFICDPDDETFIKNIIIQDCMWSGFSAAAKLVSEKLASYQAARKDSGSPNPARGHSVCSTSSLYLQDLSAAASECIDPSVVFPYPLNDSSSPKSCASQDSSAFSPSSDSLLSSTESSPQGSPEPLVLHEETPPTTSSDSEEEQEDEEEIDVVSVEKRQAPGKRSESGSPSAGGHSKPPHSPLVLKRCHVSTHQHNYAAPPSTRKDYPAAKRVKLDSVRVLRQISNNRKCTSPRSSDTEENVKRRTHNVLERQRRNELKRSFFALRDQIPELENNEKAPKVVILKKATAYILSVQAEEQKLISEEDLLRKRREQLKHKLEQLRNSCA
row,Structure (SMILES),IC50 [nM]
1,"CC(=O)Nc1sc2c(c1-c1nc3cnccc3s1)CC(C)NC2C (mixture of isomers) [Compound 109, N-(5,7-dimethyl-3-(thiazolo[4,5-c]pyridin-2-yl)-4,5,6,7-tetrahydrothieno[2,3-c]pyridin-2-yl)acetamide]",500 to 5000
2,"CC(=O)Nc1sc2c(c1-c1nc3cnccc3s1)CNC2 [Compound 102, N-(3-(thiazolo[4,5-c]pyridin-2-yl)-5,6-dihydro-4H-thieno[2,3-c]pyrrol-2-yl)acetamide]",500 to 5000
3,"CC(=O)Nc1sc2c(c1-c1nc3cnccc3s1)C(C)CNC2 (stereo not shown) [Compound 104, N-(4-methyl-3-(thiazolo[4,5-c]pyridin-2-yl)-4,5,6,7-tetrahydrothieno[2,3-c]pyridin-2-yl)acetamide]",500 to 5000
4,CC(=O)Nc1sc2c(c1-c1nc3cnccc3s1)CCN(CCN1CCOCC1)C2 [Compound 112],5000 to 25000
5,"CC(=O)Nc1sc2c(c1-c1nc3cnccc3s1)CCN(C(C)C)C2 [Compound 115, N-(6-isopropyl-3-(thiazolo[4,5-c]pyridin-2-yl)-4,5,6,7-tetrahydrothieno[2,3-c]pyridin-2-yl)acetamide]",500 to 5000
6,"CCN1[C@@H](C)Cc2c(sc(NC(C)=O)c2-c2nc3cnccc3s2)[C@@H]1C [Compound 120, N-((5S,7S)-6-ethyl-5,7-dimethyl-3-(thiazolo[4,5-c]pyridin-2-yl)-4,5,6,7-tetrahydrothieno[2,3-c]pyridin-2-yl)acetamide]",500 to 5000
7,"CC(=O)Nc1sc2c(c1-c1nc3cnccc3s1)CCN(CCN)C2 [Compound 121, N-(6-(2-aminoethyl)-3-(thiazolo[4,5-c]pyridin-2-yl)-4,5,6,7-tetrahydrothieno[2,3-c]pyridin-2-yl)acetamide hydrochloride]",500 to 5000
8,O=C(CCN1CC2(CNC2)C1)Nc1sc2c(c1-c1nc3cnccc3s1)CCNC2 [Compound 123],< 500
9,O=C(CCN1CCC[C@@]2(CCCN2)C1)Nc1sc2c(c1-c1nc3cnccc3s1)CCNC2 [Compound 124],< 500
10,O=C(CCN1CC2(CCOC2)C1)Nc1sc2c(c1-c1nc3cnccc3s1)CCNC2 [Compound 125],< 500
11,O=C(CCN1CCC2(CCOC2)C1)Nc1sc2c(c1-c1nc3cnccc3s1)CCNC2 (stereo not shown) [Compound 126],< 500
12,O=C(CCN1CCC2(CC2)C1)Nc1sc2c(c1-c1nc3cnccc3s1)CCNC2 [Compound 127],< 500
13,O=C(CCN1CC2(C1)CS(=O)(=O)C2)Nc1sc2c(c1-c1nc3cnccc3s1)CCNC2 [Compound 128],500 to 5000
14,O=C(CCN1C[C@@H]2CC(F)(F)C[C@@H]2C1)Nc1sc2c(c1-c1nc3cnccc3s1)CCNC2 [Compound 129],< 500
15,O=C(CCN1CC2CCC2C1)Nc1sc2c(c1-c1nc3cnccc3s1)CCNC2 (stereo not shown) [Compound 130],< 500
16,O=C(CCN1CC2COCC2C1)Nc1sc2c(c1-c1nc3cnccc3s1)CCNC2 (stereo not shown) [Compound 131],< 500
17,CC1CC(NCCC(=O)Nc2sc3c(c2-c2nc4cnccc4s2)CCNC3)C1 (stereo not shown) [Compound 133],< 500
18,O=C(CCNCC1CCC1)Nc1sc2c(c1-c1nc3cnccc3s1)CCNC2 [Compound 135],< 500
19,Cc1cc(C)n(CCNCCC(=O)Nc2sc3c(c2-c2nc4cnccc4s2)CCNC3)n1 [Compound 136],500 to 5000
20,C[C@H](NCCC(=O)Nc1sc2c(c1-c1nc3cnccc3s1)CCNC2)C1CC1 [Compound 137],< 500
21,CC(C)C[C@H](CO)NCCC(=O)Nc1sc2c(c1-c1nc3cnccc3s1)CCNC2 [Compound 138],< 500
22,O=C(CCNC(CO)c1ccc(F)cc1)Nc1sc2c(c1-c1nc3cnccc3s1)CCNC2 (stereo not shown) [Compound 139],500 to 5000
23,Cc1coc(CNCCC(=O)Nc2sc3c(c2-c2nc4cnccc4s2)CCNC3)n1 [Compound 140],500 to 5000
24,O=C(CCNCc1ccno1)Nc1sc2c(c1-c1nc3cnccc3s1)CCNC2 [Compound 141],< 500
25,O=C(CCN1CCC(c2ccc(Cl)cc2)CC1)Nc1sc2c(c1-c1nc3cnccc3s1)CCNC2 [Compound 143],500 to 5000
